Results as given in patent publication US11567011B2, “System and method for drug detection in exhaled breath” (Sensa Bues AB, priority 2009, dated 2023).

What was measured:
[1] = Example 2: methadone in exhaled breath collected on Empore C18 disc, UPLC-MS/MS; conditions: all 13 studied patients
[2] = Example 1: amphetamine and methamphetamine in expired air collected on SPE cartridge, SRM UPLC-MS/MS; conditions: all 12 studied patients

Row | SMILES | detection in the sampled exhaled breath [1] | detection in the expired air sample [2]
1 | CCC(=O)C(CC(C)N(C)C)(c1ccccc1)c1ccccc1 (centres unmarked) [methadone] | detected | –
2 | CN[C@@H](C)Cc1ccccc1 [methamphetamine] | – | detected
